Measured values from article PMC12566703, “Design, Synthesis, In Vitro and In Silico Biological Evaluation of New Pyridine-2,5-Dicarboxylates Esters Bearing Natural Source Fragments as Anti-Trypanosomatid Agents” (Pharmaceutics, 2025).
Where two headings read alike, the source gives them in different places.

Experiments:
[1] = tested on: T. cruzi (A1) epimastigotes; assay: In vitro trypanocidal activity, Alamar Blue assay, 48 h; type: cell-based, Trypanosoma cruzi; conditions: for Selectivity Index T. cruzi A1: CC50 (J774.2)/IC50; for IC50: 48 h; for Trypanocidal activity class in words, A1 strain: classes by IC50
Experimental: (§1) Both strains were maintained in liver infusion tryptose (LIT) medium supplemented with 10% FBS and 0.1% penicillin-streptomycin. They were preserved by transferring 1 × 10^6 parasites/mL into a new culture medium every week. […] The metabolic activity was determined by the Alamar Blue assay. Briefly, after the incubation period, 20 µL of 2.5 mM resazurin solution was added to each well and incubated for 3 h. Three independent experiments were performed in triplicate. The half-maximum inhibitory concentration (IC50) was determined using probit analysis.

[2] = tested on: T. cruzi (NINOA) epimastigotes; assay: as above; type: cell-based, Trypanosoma cruzi; conditions: for Selectivity Index T. cruzi NINOA: CC50 (J774.2)/IC50; for IC50: 48 h, read-out: T. cruzi IC50 (µM ± SD) NINOA; for IC50 / Trypanocidal activity class in words, NINOA strain: epimastigotes, NINOA strain; for Trypanocidal activity class in words, NINOA strain: classes by IC50
Experimental: as §1

[3] = tested on: L. mexicana (MHOM/MX/2017/UABJO17FCQEPS) (FCQEPS) promastigotes; assay: In vitro leishmanicidal activity, MTT method, 48 h; type: cell-based, Leishmania mexicana; conditions: for Selectivity Index L. mexicana FCQEPS: CC50 (J774.2)/IC50; for IC50: Leishmania mexicana, 48 h, read-out: L. mexicana IC50 (µM ± SD) FCQEPS; for IC50 / Leishmanicidal activity class in words, FCQEPS strain: promastigotes, FCQEPS strain; for Leishmanicidal activity class in words, FCQEPS strain: classes by IC50
Experimental: (§2) To determine the leishmanicidal activity of pyridine-2,5-dicarboxylates, the parasites, in their logarithmic growth phase (5 × 10^5 parasites/mL), were cultured in 96-well microliter plates with the corresponding pyridine-2,5-dicarboxylate compound at different concentrations (0.78–100 µM). Compounds were dissolved in DMSO in a final volume of 200 µL for 48 h at 26 °C. Parasites treated with DMSO (0.2%) were used as a negative control, while treatments with Glucantime and Amphotericin B, at the same concentrations, were used as positive controls. The metabolic activity of the cells was determined using the 3-(4,5-Dimethylthiazol-2-yl)-2,5-diphenyltetrazolium bromide (MTT) method. IC50 was determined using probit analysis. Three independent experiments were performed in triplicate, and the data were analyzed for statistical significance (p < 0.05) using Biostat 5.3.0 software.

[4] = tested on: L. mexicana (MNYC/BZ/62/M379) (M379) promastigotes; assay: In vitro leishmanicidal activity, MTT method, 48 h; type: cell-based, Leishmania mexicana; conditions: for Selectivity Index L. mexicana M379: CC50 (J774.2)/IC50; for IC50: Leishmania mexicana, 48 h, read-out: L. mexicana IC50 (µM ± SD) M379; for IC50 / Leishmanicidal activity class in words, M379 strain: promastigotes, M379 strain; for Leishmanicidal activity class in words, M379 strain: classes by IC50
Experimental: as §2

[5] = Cytotoxicity assay, MTT method, 48 h; type: cell-based, murine; conditions: mouse, J774.2 macrophage cells, J774.2 cell line, read-out: Macrophage J774.2 CC50 (µM ± SD)
Experimental: A cytotoxicity assay was performed using the murine macrophage J774.2 cell line, which was recloned from the original ascites and solid tumor J774.1 (according to the manufacturer). The cells were cultured in RPMI medium supplemented with 10% SBF, 100 U […] penicillin, 100 µg/mL streptomycin, and glutamine (2 mM), and 5% CO2 atmosphere. The medium was changed every 2–3 days. Macrophages were used at 1 × 10^6 cells and were incubated with compounds at different concentrations (0.75–100 µM, respectively) at 37 °C for 48 h in a 5% CO2 atmosphere. DMSO was used as a negative control (0.2%). The metabolic activity of macrophages was determined by the MTT method. The percentage of cell viability was calculated, and the half-maximal cytotoxic concentration (CC50) was determined using probit analysis. Three independent assays were conducted in triplicate.

[6] = Trypanosoma cruzi, epimastigotes, A1 strain, read-out: T. cruzi IC50 (µM ± SD) A1
[7] = epimastigotes, A1 strain, read-out: T. cruzi IC50 (µM ± SD) A1

Structure (SMILES) | Selectivity Index T. cruzi A1 [1] | Selectivity Index T. cruzi NINOA [2] | IC50 ([2]; Trypanosoma cruzi) [µM] | IC50 [2] [µM] | Selectivity Index L. mexicana FCQEPS [3] | IC50 [3] [µM] | Selectivity Index L. mexicana M379 [4] | IC50 [4] [µM] | Leishmanicidal activity class in words, M379 strain [4] | CC50 at 48 h [5] [µM] | IC50 [1, 6] [µM] | IC50 [1, 7] [µM] | Trypanocidal activity class in words, NINOA strain [2] | Leishmanicidal activity class in words, FCQEPS strain [3] | Trypanocidal activity class in words, A1 strain ([1]; epimastigotes, A1 strain) | IC50 ([1]; Trypanosoma cruzi, read-out: T. cruzi IC50 (µM ± SD) A1, epimastigotes, A1 strain, 48 h) [µM] | IC50 ([1]; read-out: T. cruzi IC50 (µM ± SD) A1, epimastigotes, A1 strain) [µM]
CCOC(=O)c1nc(C)c(C(=O)OCc2ccc(C)cc2)cc1-c1ccccc1 [Compound 5a, 2-Ethyl 5-(4-methylbenzyl) 6-methyl-3-phenylpyridine-2,5-dicarboxylate] | >9.3 | >3.5 | ≤ 56.7 | 56.6 ± 1.26 | >2.1 | 95 ± 1.36 | >1 | > 200 | did not have antiparasitic activity | > 200 | – | – | – | – | – | – | –
CCOC(=O)c1nc(C)c(C(=O)O[C@@H]2C[C@@H](C)CC[C@H]2C(C)C)cc1-c1ccc(F)cc1 [Compound 8c, 2-Ethyl 5-((1R,2S,5S)-2-isopropyl-5-methylcyclohexyl) 3-(4-fluorophenyl)-6-methylpyridine-2,5-dicarboxylate] | >9.2 | >4.3 | ≤ 56.7 | 46 ± 3.33 | >2.2 | 90.9 ± 5 | >1 | > 200 | – | > 200 | – | – | – | – | – | – | –
CCOC(=O)c1nc(C)c(C(=O)OC2C[C@@H]3CC[C@@]2(C)C3(C)C)cc1-c1ccccc1 (some centres unmarked) [Compound 9a] | >8.0 | >3.6 | 55.8 ± 2.5 | – | >1 | > 200 | >1 | > 200 | did not have antiparasitic activity | > 200 | < 29 | 25 ± 2.98 | moderately active (moderately active (IC50 41 to 100 µM)) | did not have leishmanicidal activity | – | – | –
CCOC(=O)c1nc(C)c(C(=O)OC/C=C(\C)CCC=C(C)C)cc1-c1ccc(C)cc1 [Compound 12b, (E)-5-(3,7-Dimethylocta-2,6-dien-1-yl) 2-ethyl 6-methyl-3-(p-tolyl)pyridine-2,5-dicarboxylate] | >1 | >1 | > 200 | – | >3.5 | – | >3.6 | – | – | > 200 | > 200 | – | – | – | completely lose their trypanocidal activity | – | –
CCOC(=O)c1nc(C)c(C(=O)OCC23CC4CC(CC(C4)C2)C3)cc1-c1ccc(C)cc1 [Compound 10b] | >1.8 | – | < 26.4 | 20.98 ± 0.15 | >2.1 | 92.93 ± 0.02 | >1 | > 200 | – | > 200 | 111 ± 1.14 | – | – | – | – | – | –
CCOC(=O)c1nc(C)c(C(=O)OCc2ccc3c(c2)OCO3)cc1-c1ccc(F)cc1 [Compound 6c] | >7.9 | >1 | > 200 | – | >1 | > 200 | >1 | > 200 | inactive | > 200 | 25.4 ± 0.6 | – | – | – | – | – | –
CCOC(=O)c1cc(-c2ccc(F)cc2)c(C(=O)OCC)nc1C [Compound 3c] | >2.2 | >1.9 | 100 ± 1.86 | – | >1.7 | 118 ± 2.08 | >1 | > 200 | inactive | > 200 | 91.7 ± 1.72 | – | – | – | – | – | –
CCOC(=O)c1nc(C)c(C(=O)OCCC(C)CCC=C(C)C)cc1-c1ccccc1 (centres unmarked) [Compound 11a] | – | – | > 200 | – | 1.6 | 73 ± 1.78 | – | > 200 | did not have antiparasitic activity | 119 ± 7.3 | > 200 | – | inactive | – | – | – | –
CCOC(=O)c1nc(C)c(C(=O)OC/C=C/c2ccccc2)cc1-c1ccccc1 [Compound 7a] | >1 | >7.20 | 27.8 ± 1.66 | – | >1 | > 200 | >1 | > 200 | did not have antiparasitic activity | > 200 | > 200 | – | – | did not have leishmanicidal activity | – | – | –
CCOC(=O)c1nc(C)c(C(=O)OC/C=C(\C)CCC=C(C)C)cc1-c1ccccc1 [Compound 12a] | 0.2 | 0.2 | 106 ± 1.43 | – | 0.3 | 75.3 ± 4.28 | – | > 200 | did not have antiparasitic activity | 25 ± 0.8 | 117.8 ± 0.94 | – | slight trypanocidal activity | – | slight activity | – | –
CCOC(=O)c1nc(C)c(C(=O)OCC=Cc2ccccc2)cc1-c1ccc(F)cc1 [Compound 7c] | >8.8 | >3.1 | 63.1 ± 1.64 | – | >1 | > 200 | >1 | > 200 | inactive | > 200 | 22.8 ± 0.69 | – | – | – | – | – | –
CCOC(=O)c1nc(C)c(C(=O)OCc2ccccc2)cc1-c1ccccc1 [Compound 4a, 5-Benzyl 2-ethyl 6-methyl-3-phenylpyridine-2,5-dicarboxylate] | >7.0 | >4.7 | ≤ 56.7 | 42.4 ± 1.88 | >1 | > 200 | >1 | > 200 | did not have antiparasitic activity | > 200 | ≤ 56.7 | 28.5 ± 1.5 | – | did not have leishmanicidal activity | – | – | –
CCOC(=O)c1nc(C)c(C(=O)OCC=Cc2ccccc2)cc1-c1ccc(C)cc1 [Compound 7b] | >1 | >2.0 | – | – | >1.7 | 116.71 ± 0.03 | >1 | > 200 | did not have antiparasitic activity | > 200 | > 200 | – | – | – | completely lose their trypanocidal activity | – | –
CCOC(=O)c1nc(C)c(C(=O)OCc2ccccc2)cc1-c1ccc(F)cc1 [Compound 4c] | >1 | >1 | > 200 | – | >1 | > 200 | >1 | > 200 | inactive | > 200 | > 200 | – | – | – | – | – | –
CC1CS(=O)(=O)CCN1/N=C/c1ccc([N+](=O)[O-])o1 (centres unmarked) [Nfx, Nifurtimox, reference compound] | – | – | 7.09 ± 0.12 | – | – | – | – | – | – | – | 19.3 ± 0.08 | – | – | – | – | – | –
O=C(Cn1ccnc1[N+](=O)[O-])NCc1ccccc1 [Bzn, Benznidazole, reference compound] | – | – | – | – | – | – | – | – | – | – | – | – | – | – | – | < 39 | 39.08 ± 0.07
